# Measurements reported in patent publication US8546430B2, “Thalidomide analogs” (P2D, Inc., priority 2003, dated 2013).
# “Also recorded” adds a separate entry of the source.
# Columns and labels:
# rat aortic ring = experiment: Rat aortic ring microvessel growth assay; format: cell-based; settings: 0.1-20 μg/ml daily for 4 days; FIGS. 2-11
# Protocol: The angiogenesis modulating activity of representative compounds was assessed in a rat aortic ring microvessel growth assay. Briefly, twelve-well tissue culture plates were coated with 250 μl of Matrigel (Becton-Dickinson, Bedford, Mass.) and allowed to gel for 30 min at 37° C. and 5% CO2. Thoracic aortas were excised from 8- to 10-week-old male Sprague Dawley rats. After careful removal of fibroadipose tissues, the aortas were cut into 1-mm-long cross-sections, placed on Matrigel-coated wells, and covered with an additional 250 μl of Matrigel. After the second layer of Matrigel had set, the rings were covered with EGM-II and incubated overnight at 37° C. and 5% CO2. EGM-II consists of endothelial cell basal medium (EBM-II; Clonetics, San Diego, Calif.) plus endothelial cell growth factors provided as the EGM-II Bulletkit (Clonetics). The culture medium was subsequently changed to EBM-II supplemented with 2% fetal bovine serum, 0.25 μg/ml amphotericin B, and 10 μg/ml gentamicin. Aortic rings were treated daily with either the vehicle (0.5% DMSO), carboxyamidotriazole (CAI, 12 μg/ml), thalidomide or thalidomide analogs (0.1-20 μg/ml) for 4 days and photographed on the 5th day using a ×2.5 objective. CAI, a known antiangiogenic agent, was used at higher than clinically achievable concentration as a positive control. Experiments were repeated four times using aortas from four different rats. The area of angiogenic sprouting, reported in square pixels, was quantified using Adobe PhotoShop. Further details of the method are provided in Luzzio et al., J Med Chem.; 46:3793-9, 2003, which is incorporated by reference herein. It should be understood that this method can be used as an assay to rapidly select compounds having a desired angiogenic or anti-angiogenic effect, for example, for use in the disclosed methods of treating a subject.
# TNF-α = experiment: Inhibition of LPS-induced TNF-α secretion in human PBMC (ELISA); format: cell-based; settings: for IC50 / inhibition at 30 µM / % Inhibition at 30 μM: LPS-induced TNF-α production in PBMC; for TNF-α inhibitory activity (in words): LPS-stimulated PBMC
# Protocol: (§1) The action of the these thiothalidomide analogs in inhibiting TNF-α secretion was assessed in human peripheral blood mononuclear cells (PBMC) and the results are shown in Table 1. Freshly prepared PBMCs were utilized in all studies. Blood, 40 ml, was drawn from a volunteer, immediately mixed with 50 U/ml Na heparin and was diluted to 50 ml total volume with sterile PBS. Samples, 20 ml, of this preparation then were layered on 20 ml Ficoll-Paque and were centrifuged (800 g, 20 min). The Ficoll/serum interface, containing PBMCs, was collected, diluted to 200 ml with PBS, and then was centrifuged (800 g, 15 min) to pellet the cells. Thereafter, the recovered pellet was re-suspended in 37° C. tissue culture medium (RPMI/1 mM Sodium pyruvate/10% heat inactivated FBS/2 mM Glutamax) and placed on ice. Recovered cells were counted, pipetted (200 ul of 5×10^5/ml) into 96 well plates, and incubated for an hour (37° C., 5% CO2). Thereafter, appropriate concentrations of test compounds or vehicle (10 ul DMSO) were added to duplicate wells. Following a further hour of incubation, a 10 ul sample of lipopolysaccharide (LPS) (100 ng/ml in supplemented medium) or vehicle was added to induce stimulated and unstimulated cells, respectively, and the cells were incubated overnight. Sixteen hours later, supernatants were collected for quantification of TNF-α levels by ELISA assay (Pierce-Endogen human TNF-α mini kit, Rockford, Ill.) and the use of specific capture and detection monoclonal antibodies, M303E and M302B (Pierce-Endogen), respectively. ELISA plates were read at λ=450 nm and TNF-α levels were determined from a six-point calibration curve that was run concurrently with the test samples. The effect of test drug concentrations on the cellular viability of PBMCs was assessed by MTS assay (Promega, Madison, Wis.) of the cells that provided the supernatant samples assayed for TNF-α levels, described above. It should be understood that this method can be used to test any of the disclosed compounds as a screening assay for readily determining their TNF-α modulating activity, and for selecting them for use in the disclosed method of treating a subject.
# PBMC = experiment: Cellular viability of PBMCs by MTS assay; format: cell-based, human
# Protocol: as §1
Compound,Angiogenic modulating activity (in words) (rat aortic ring),melting point,IC50 (TNF-α; Homo sapiens),inhibition at 30 µM (TNF-α; Homo sapiens),Cell viability at 0.3 μM (PBMC),Cell viability at 3 μM (PBMC),Cell viability at 30 μM (PBMC),Toxicity / cytotoxicity (in words) (PBMC),TNF-α inhibitory activity (in words) (TNF-α),further results
"CC12CCC(C(=O)NC3CCC(=O)NC3=O)(OC1=O)C2(C)C (centres unmarked) [3-Camphanic amino-2,6-piperidinedione]",potent angiogenic activity at all concentrations tested; also recorded: exhibited angiogenic activity,–,–,–,–,–,–,–,–,–
"COc1ccc(N2C(=O)c3ccccc3C2=O)c(OC)n1 [Compound 5, 1,3-Dioxo-2-(2,6-dimethoxypyridin-3-yl)-isoindoline]",angiogenic activity at all concentrations tested,–,–,–,–,–,–,–,–,–
"Br.COc1ccc(N2C(=O)c3ccccc3C2=O)c(O)n1 [Compound 6, 1,3-Dioxo-2-(2-hydroxy-6-methoxypyridin-3-yl)-isoindoline hydrobromide]",anti-angiogenic activity in the rat aortic ring assay at all concentrations tested,–,–,–,–,–,–,–,–,–
"NC(=O)c1cc2ccccc2cc1C(=O)NC1CCC(=O)NC1=O (centres unmarked) [Compound 14, N-(2,6-dioxopiperidin-3-yl)-2,3-naphthalenedicarboxamide]",–,> 300 °C,–,–,–,–,–,–,–,–
"CC(=O)Oc1ccccc1C(=O)NC1CCC(=O)NC1=O (centres unmarked) [Compound 24, 2-acetoxy-N-(2,6-dioxopiperidin-3-yl)benzamide]",potent angiogenic activity,–,–,–,–,–,–,–,–,–
"O=C1NC(=S)CCC1N1C(=O)c2ccccc2C1=O (centres unmarked) [Compound 205, 2-(2-Oxo-6-thioxo-3-piperidinyl)-1H-isoindole-1,3(2H)-dione]","anti-angiogenic activity at higher concentration, and some angiogenic activity at lower concentrations",225 to 226 °C,> 30 µM,31%,96%,90%,> 100%,–,–,Inhibition of TNF-α secretion at 30 μM (in words) (TNF-α): only marginal activity
"COC(=O)CCC(C(=O)OC)N1C(=O)c2ccccc2C1=S (centres unmarked) [Compound 208, Dimethyl 2-(1,3-dihydro-1-oxo-3-thioxo-2H-isoindol-2-yl)-pentanedioate]",–,–,20 µM,56%,96%,99%,93%,without toxicity,–,–
"COC(=O)CCC(C(=O)OC)N1C(=S)c2ccccc2C1=S (centres unmarked) [Compound 209, Dimethyl 2-(1,3-dihydro-1,3-dithioxo-2H-isoindol-2-yl)-pentanedioate]",–,–,10 µM,85%,89%,86%,57%,induced cellular toxicity at lower concentrations,–,Fold more potent than 208 (TNF-α; TNF-α inhibitory action): 2 fold
"O=C1c2ccccc2C(=NCc2ccccc2)N1Cc1ccccc1 [Compound 210, 3-Benzylimino-2-benzyl-2,3-dihydroisoindol-1-one]",exhibited angiogenic activity,–,–,–,–,–,–,–,–,–
"O=C(O)CCC(C(=O)O)N1C(=O)c2ccccc2C1=S (centres unmarked) [Compound 211, 2-(1,3-Dihydro-1-oxo-3-thioxo-2H-isoindol-2-yl)-pentanedioic acid]",angiogenic activity at all concentrations tested,157 °C,> 30 µM,20%,93%,93%,86%,–,lowered potency,–
"O=C1CCC(N2C(=O)c3ccccc3C2=S)C(=O)N1 (centres unmarked) [Compound 212, 2,3-Dihydro-3-thioxo-2-(2,6-dioxo-3-piperidinyl)-1H-isoindol-1-one]",–,255 °C,> 30 µM,23%,94%,100%,94%,–,–,Inhibition of TNF-α secretion at 30 μM (in words) (TNF-α): only marginal activity
"O=C1c2ccccc2C(=O)N1C1CCC(=S)NC1=S (centres unmarked) [Compound 213, 2-(2,6-Dithioxo-3-piperidinyl)-1H-isoindole-1,3(2H)-dione]",anti-angiogenic activity at all concentrations tested,263 to 265 °C,20 µM,52%,94%,87%,69%,induced increasing cytotoxicity at higher concentrations; also recorded: induces toxicity at high concentration,less active than dithioglutarimide 219,–
"O=C1CCCC(=S)N1 [Compound 218, 6-Thioxo-2-piperidinone]",–,135 °C,> 30 µM,15%,86%,84%,> 100%,–,–,Inhibition of TNF-α secretion at 30 μM (in words) (TNF-α): minimally inhibited TNF-α secretion
"O=C1c2ccccc2C(=O)N1C1CC=CCC1 (centres unmarked) [Compound 221, 2-(3-Cyclohexenyl)-1H-isoindole-1,3(2H)-dione]",–,114 °C,–,–,–,–,–,–,–,–
"S=C1c2ccccc2C(=S)N1C1CC=CCC1 (centres unmarked) [Compound 222, 2-(3-Cyclohexenyl)-1H-isoindol-1,3(2H)-dithione]",anti-angiogenic activity at higher concentrations and angiogenic activity at lower concentrations,–,–,–,96%,94%,50%,some toxicity at 30 μM,active TNF-α inhibitors,IC50 (TNF-α): 15 µM; % Inhibition at 30 μM (TNF-α): 86%
"O=C1c2ccccc2C(=S)N1C1CC=CCC1 (centres unmarked) [Compound 223, 2,3-dihydro-3-thioxo-2-(3-cyclohexenyl)-1H-isoindol-1-one]",–,67 to 68 °C,16 µM,85%,99%,89%,57%,some toxicity at 30 μM,active TNF-α inhibitors,–
"S=C1NC(=S)c2ccccc21 [Compound 224, dithiophthalimide]",angiogenic activity at all concentrations tested,–,3 µM,95%,83%,83%,54%,associated with toxicity at 30 μM,potent activity,–
"Nc1ccc2c(=O)n(C3CCC(=O)NC3=O)c(=O)oc2c1 (centres unmarked) [Compound 228, 3-[2′,6′-piperidinedion-3′-yl]-7-amino-2H-1,3-benzoxazine-2,4(3H)-dione]",–,–,–,–,–,–,–,–,potent inhibitory action on TNF-α,"EC50 (TNF-α; Homo sapiens, PBMC, TNF-α assay of Example 11): 0.4 µM"
Monothiophthalimide [Compound 225],–,–,–,–,94%,94%,> 100%,without toxicity,–,Inhibition of TNF-α secretion at 30 μM (in words) (TNF-α): marginal TNF-α activity; IC50 (TNF-α): > 30 µM; % Inhibition at 30 μM (TNF-α): 34%
